Results published in US12338270B2, “Pharmaceutical composition comprising polypeptide” (D&D Pharmatech Inc., priority 2018, dated 2025).
Positions of bridges follow the written chain, without caps; N, C: chain ends. Non-standard residues stand in square brackets, D forms with d. Residues, ends and D or L forms follow the SMILES beside them. No end group written: not given here. Aib = CC(C)(N)C(=O)O

Tests used:
[1] = molecular target: human glucagon GLP-1 receptor (Homo sapiens, UniProt P43220); assay: cell-based
Chain of human glucagon GLP-1 receptor (P43220 24-463): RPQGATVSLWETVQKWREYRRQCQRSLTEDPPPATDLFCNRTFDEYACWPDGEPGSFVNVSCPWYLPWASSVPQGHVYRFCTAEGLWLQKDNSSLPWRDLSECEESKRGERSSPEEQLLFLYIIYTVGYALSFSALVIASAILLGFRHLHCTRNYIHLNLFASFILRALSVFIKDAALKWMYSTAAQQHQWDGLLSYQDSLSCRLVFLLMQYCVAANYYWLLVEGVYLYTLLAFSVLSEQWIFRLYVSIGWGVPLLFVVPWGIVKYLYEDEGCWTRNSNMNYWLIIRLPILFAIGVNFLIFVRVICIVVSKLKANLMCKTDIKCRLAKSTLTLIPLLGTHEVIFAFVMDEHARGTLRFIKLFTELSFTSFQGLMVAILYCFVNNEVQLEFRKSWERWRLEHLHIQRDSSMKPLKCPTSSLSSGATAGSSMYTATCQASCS
Protocol: Thereafter, the cells were incubated for 4 hours under conditions of a temperature of 37° C. in a CO2 incubator.

[2] = animal experiment on anti-obesity effect of Example 1; assay type: in vivo; conditions: no details
[3] = tested on: obesity animal model (C57BL/6 mice, 60% high-fat diet); assay: blood glucose in obesity model, Examples 2 and 6 (Experimental Example 6); assay type: in vivo; conditions: 20 nmol/kg s.c. once every other day for 2 weeks; FIG. 5
Protocol: (§1) To check a preventing or therapeutic effect of the conjugates of Examples 2 and 6, which had different amino acid sequences, on obesity or diabetes, an animal model of obesity was prepared by feeding a 60% high-fat diet to normal C57BL/6 mice (approximately 6 weeks old) for approximately 24 weeks, and increasing the body weights of the mice to approximately 50 g in average. Thereafter, each of the conjugates of Examples 2 or 6 was administered by subcutaneous injection at a dose of 20 nmol/kg once every other day for 2 weeks. As the control, PBS was administered instead of the conjugates of Examples. For 2 weeks when the conjugates of Examples 2 or 6 were administered, changes in blood glucose with time were measured. Also, to perform an intraperitoneal glucose tolerance test (ipGTT), 2 g/kg of glucose was administered intraperitoneally after the 2-week administration of the drug, and changes in blood glucose with the elapse of time (0, 15, 30, 60, 90, and 120 minutes) were measured.

[4] = tested on: obesity animal model (C57BL/6 mice, 60% high-fat diet); assay: ipGTT in obesity model, Examples 2 and 6 (Experimental Example 6); assay type: in vivo; conditions: 2 g/kg glucose i.p. after 2 weeks of 20 nmol/kg s.c. once every other day; FIG. 6
Protocol: as §1

Pancreatic lipase = molecular target: T1, Pancreatic lipase (Homo sapiens, UniProt P16233); conditions: background statement; cited from earlier work
T1 sequence (P16233 17-465): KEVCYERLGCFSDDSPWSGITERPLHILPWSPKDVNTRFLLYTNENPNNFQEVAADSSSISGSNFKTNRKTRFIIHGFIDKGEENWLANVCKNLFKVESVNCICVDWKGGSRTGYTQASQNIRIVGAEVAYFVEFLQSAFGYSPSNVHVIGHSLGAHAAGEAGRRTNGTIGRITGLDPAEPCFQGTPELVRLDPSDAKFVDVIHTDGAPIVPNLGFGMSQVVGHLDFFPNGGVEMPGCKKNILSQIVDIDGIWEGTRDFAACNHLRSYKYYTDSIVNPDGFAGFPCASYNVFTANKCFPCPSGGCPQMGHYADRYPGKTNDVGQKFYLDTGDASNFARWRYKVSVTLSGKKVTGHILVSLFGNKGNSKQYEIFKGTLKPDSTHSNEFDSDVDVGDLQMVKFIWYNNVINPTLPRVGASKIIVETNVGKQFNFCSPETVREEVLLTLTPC

CSCC[C@H](NC(=O)[C@H](CC(C)C)NC(=O)[C@H](Cc1c[nH]c2ccccc12)NC(=O)[C@H](CCC(N)=O)NC(=O)[C@@H](NC(=O)[C@H](Cc1ccccc1)NC(=O)[C@H](CCC(=O)O)NC(=O)[C@@H]1CCCCNC(=O)CC[C@H](NC(=O)[C@H](CC(=O)O)NC(=O)[C@H](CC(C)C)NC(=O)[C@H](Cc2ccc(O)cc2)NC(=O)[C@H](CCCCN)NC(=O)[C@H](CO)NC(=O)[C@H](Cc2ccc(O)cc2)NC(=O)[C@H](CC(=O)O)NC(=O)[C@H](CO)NC(=O)[C@@H](NC(=O)[C@H](Cc2ccccc2)NC(=O)[C@@H](NC(=O)CNC(=O)[C@H](CCC(N)=O)NC(=O)C(C)(C)NC(=O)[C@@H](N)Cc2c[nH]cn2)[C@@H](C)O)[C@@H](C)O)C(=O)N[C@@H](CCC(N)=O)C(=O)N[C@@H](C)C(=O)N[C@@H](C)C(=O)N1)C(C)C)C(=O)N[C@@H](CC(N)=O)C(=O)N[C@H](C(=O)N[C@@H](CS)C(=O)O)[C@@H](C)O [Example 1] (H-H[Aib]QGTFTSDYSKYLDEQAAKEFVQWLMNTC-OH; lactam 16-20 (inferred); N-terminus and C-terminus assumed)
EC50 [1]: 130 pM
anti-obesity effect [2]: had an anti-obesity effect

Example 6: Conjugate of polypeptide H(Aib)QGTFTSDYSKYLDEEAVKEFVQWLMNTC (SEQ ID NO. 4) and tri-branched mPEG-MAL (MW: 50 kDa) (H[Aib]QGTFTSDYSKYLDEEAVKEFVQWLMNTC; not fully specified (residue 30, bridges); printed as H(Aib)QGTFTSDYSKYLDEEAVKEFVQWLMNTC; also: conjugate with tri-branched mPEG-MAL 50 kDa)
level of blood glucose vs control [3]: a level of blood glucose was lowered
increase in blood glucose in ipGTT vs control [4]: an increase in blood glucose was significantly reduced

CCCCCCCCCCC[C@@H](C[C@@H]1OC(=O)[C@H]1CCCCCC)OC(=O)[C@H](CC(C)C)NC=O [tetrahydrolipstatin (orlistat), tetrahydrolipstatin]
inhibition of absorption of ingested fats (Pancreatic lipase): approximately 30%
